How the values were obtained:
[1] = Cytotoxicity against human P15 cells after 48 hrs by MTT assay; assay type: functional, cell-based; conditions: P15, 48 h
[2] = Cytotoxicity against human MGC803 cells after 48 hrs by MTT assay; assay type: functional, cell-based; conditions: MGC-803, 48 h
SW1990 = experiment: Cytotoxicity against human SW1990 cells after 48 hrs by MTT assay; assay type: functional, cell-based; conditions: SW1990, 48 h
[3] = Cytotoxicity against human LO2 cells after 48 hrs by MTT assay; assay type: cell-based; conditions: L02, 48 h

## CO[C@@H]1[C@@H](O)[C@@H](O[C@@H]2CC[C@]3(CO)[C@@H](CC[C@H]4[C@H]3CC[C@@]3(C)[C@H](C5=CC(=O)OC5)CC[C@@]43O)C2)O[C@H](C)[C@H]1O[C@@H]1O[C@H](CO[C@H]2O[C@@H](CO)[C@H](O)[C@@H](O)[C@@H]2O)[C@@H](O)[C@H](O)[C@H]1O
[1]
  IC50: 10 µM
[2]
  IC50: 9.52 µM
SW1990
  IC50: 7.7 µM
[3]
  IC50: > 10 µM

## CO[C@H]1[C@H](O)[C@H](O[C@H]2CC[C@@]3(C(=O)O)[C@H](CC[C@@H]4[C@@H]3CC[C@]3(C)[C@@H](C5=CC(=O)OC5)CC[C@]43O)C2)O[C@@H](C)[C@@H]1O
[1]
  IC50: > 10 µM
[2]
  IC50: 3.93 µM
SW1990
  IC50: > 10 µM
[3]
  IC50: > 10 µM

## CO[C@@H]1[C@@H](O)[C@@H](O[C@@H]2CC[C@]3(C=O)[C@@H](CC[C@H]4[C@H]3CC[C@@]3(C)[C@H](C5=CC(=O)OC5)CC[C@@]43O)C2)O[C@H](C)[C@H]1O[C@@H]1O[C@H](CO)[C@@H](O)[C@H](O)[C@H]1O
[1]
  IC50: 1.46 µM
[2]
  IC50: 5.32 µM
SW1990
  IC50: 0.64 µM
[3]
  IC50: > 10 µM

## CO[C@H]1[C@H](O)[C@H](O[C@H]2CC[C@@]3(C)[C@@H](CC[C@@H]4[C@@H]3CC[C@]3(C)[C@@H](C5=CC(=O)OC5)CC[C@]43O)C2)O[C@@H](C)[C@@H]1O[C@H]1O[C@@H](CO[C@@H]2O[C@H](CO)[C@@H](O)[C@H](O)[C@H]2O)[C@H](O)[C@@H](O)[C@@H]1O
[1]
  IC50: 10 µM
[2]
  IC50: 8.32 µM
SW1990
  IC50: > 10 µM
[3]
  IC50: > 10 µM

## CO[C@H]1[C@H](OC(C)=O)[C@H](O[C@H]2CC[C@@]3(C)[C@H](CC[C@@H]4[C@@H]3CC[C@]3(C)[C@@H](C5=CC(=O)OC5)CC[C@]43O)C2)O[C@@H](C)[C@@H]1O[C@H]1O[C@@H](CO[C@@H]2O[C@H](CO)[C@@H](O)[C@H](O)[C@H]2O)[C@H](O)[C@@H](O)[C@@H]1O
[1]
  IC50: 4.75 µM
[2]
  IC50: 7.04 µM
SW1990
  IC50: 5.82 µM
[3]
  IC50: > 10 µM

## CO[C@H]1[C@H](O)[C@H](O[C@H]2CC[C@@]3(O)[C@H](CC[C@@H]4[C@@H]3CC[C@]3(C)[C@@H](C5=CC(=O)OC5)CC[C@]43O)C2)O[C@@H](C)[C@@H]1O
[1]
  IC50: 1.52 µM
[2]
  IC50: 2.14 µM
SW1990
  IC50: 0.49 µM
[3]
  IC50: > 10 µM

## CO[C@H]1[C@H](O)[C@H](O[C@H]2CC[C@@]3(C=O)[C@H](CC[C@@H]4[C@@H]3CC[C@]3(C)[C@@H](C5=CC(=O)OC5)CC[C@]43O)C2)O[C@@H](C)[C@@H]1O [PERUVOSIDE]
[1]
  IC50: 0.03 µM
[2]
  IC50: 0.02 µM
SW1990
  IC50: 0.02 µM
[3]
  IC50: > 10 µM

## O=c1[nH]cc(F)c(=O)[nH]1 [FLUOROURACIL]
[1]
  IC50: 89.2 µM
[2]
  IC50: 68.3 µM
SW1990
  IC50: 126 µM
[3]
  IC50: > 10 µM

## CO[C@H]1[C@@H](O)[C@H](O[C@H]2CC[C@@]3(C)[C@H](CC[C@@H]4[C@@H]3CC[C@]3(C)[C@@H](C5=CC(=O)OC5)CC[C@]43O)C2)O[C@@H](C)[C@@H]1O[C@H]1O[C@@H](CO[C@@H]2O[C@H](CO)[C@@H](O)[C@H](O)[C@H]2O)[C@H](O)[C@@H](O)[C@@H]1O
[1]
  IC50: 6.02 µM
[2]
  IC50: 1.93 µM
SW1990
  IC50: 7.28 µM
[3]
  IC50: > 10 µM

## CO[C@H]1[C@@H](O)[C@H](O[C@H]2CC[C@@]3(C)[C@@H](CC[C@@H]4[C@@H]3CC[C@]3(C)[C@@H](C5=CC(=O)OC5)CC[C@]43O)C2)O[C@@H](C)[C@@H]1O[C@H]1O[C@@H](CO[C@@H]2O[C@H](CO)[C@@H](O)[C@H](O)[C@H]2O)[C@H](O)[C@@H](O)[C@@H]1O
[1]
  IC50: 10 µM
[2]
  IC50: 6.56 µM
SW1990
  IC50: > 10 µM
[3]
  IC50: > 10 µM

## CO[C@H]1[C@H](OC(C)=O)[C@H](O[C@@H]2CC[C@]3(C=O)[C@@H](CC[C@H]4[C@H]3CC[C@@]3(C)[C@H](C5=CC(=O)OC5)CC[C@@]43O)C2)O[C@@H](C)[C@@H]1O[C@H]1O[C@@H](CO[C@@H]2O[C@H](CO)[C@@H](O)[C@H](O)[C@H]2O)[C@H](O)[C@@H](O)[C@@H]1O
[1]
  IC50: > 10 µM
[2]
  IC50: 9.53 µM
SW1990
  IC50: > 10 µM
[3]
  IC50: > 10 µM

## CO[C@H]1[C@H](O)[C@H](O[C@H]2CC[C@@]3(O)[C@H](CC[C@@H]4[C@@H]3CC[C@]3(C)[C@@H](C5=CC(=O)OC5)CC[C@]43O)C2)O[C@@H](C)[C@@H]1O[C@@H]1O[C@H](CO[C@@H]2O[C@H](CO)[C@@H](O)[C@H](O)[C@H]2O)[C@@H](O)[C@H](O)[C@H]1O
[1]
  IC50: > 10 µM
[2]
  IC50: > 10 µM
SW1990
  IC50: > 10 µM
[3]
  IC50: > 10 µM

From ChEMBL document CHEMBL3792337, “Cardiac Glycosides from the Seeds of Thevetia peruviana” (J Nat Prod, 2016)
